Data published in US20250388574A1, “HETEROCYCLIC COMPOUNDS AS TRIGGERING RECEPTOR EXPRESSED ON MYELOID CELLS 2 AGONISTS AND METHODS OF USE” (AMGEN INC., priority 2020, published 2025).

Molecular target: hTREM2 (Homo sapiens, UniProt Q9NZC2)
Experiment: Phospho-Syk AlphaScreen/AlphaLISA assay in TREM2 and DAP12 overexpressing HEK293 cells (Example A1)
Format: cell-based
Set-up: expressed in transfected cells
Conditions: HEK293 cells; for EC50: read-out: hTREM2 EC50
In short: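 Single-cell-cloned HEK293 stably overexpressing TREM2 and DAP12, plated 20,000 cells/well for 20 h, then exposed to compounds (1% DMSO) 45 min at room temperature. Lysates probed for phospho-Syk by AlphaLISA sandwich (anti-pSyk, biotinylated anti-Syk); signal normalized to percent of control (100 nM anti-TREM2 antibody vs isotype) and fitted by 4-parameter logistic.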

hTREM2, sequence (Q9NZC2 19-230): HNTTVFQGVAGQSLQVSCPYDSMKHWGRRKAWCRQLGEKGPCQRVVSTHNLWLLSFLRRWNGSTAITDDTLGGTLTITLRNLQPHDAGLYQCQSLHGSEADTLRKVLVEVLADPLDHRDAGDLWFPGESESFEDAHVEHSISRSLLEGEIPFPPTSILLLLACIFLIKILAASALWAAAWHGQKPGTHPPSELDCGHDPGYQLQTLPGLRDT
hTREM2, sequence (O43914 22-113 partner): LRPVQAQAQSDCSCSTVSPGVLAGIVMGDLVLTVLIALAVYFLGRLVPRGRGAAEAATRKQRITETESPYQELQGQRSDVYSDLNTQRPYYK

With Cc1nc2cc(N3CCC[C@@H](c4cn[nH]c4)C3)nc(-c3ccc(Cl)cc3F)c2c(=O)n1C (single isomer, unassigned) [Example 107] the Emax was “++++ (Emax>300)” and the EC50 was under 50 nM.

In the case of Cc1nc2cc(N3CCO[C@@H](c4cnn(C(C)F)c4)C3)nc(-c3ccc(Cl)cc3F)c2c(=O)n1C (stereo partly drawn) [Example 129, 5-(4-chloro-2-fluorophenyl)-7-((2S)-2-(1-(1-fluoroethyl)-1H-pyrazol-4-yl)-4-morpholinyl)-2,3-dimethylpyrido[4,3-d]pyrimidin-4(3H)-one], the Emax is reported as “+++ (Emax>200 and ≤300)” and the EC50 is reported as under 50 nM.

In the case of Cc1nc2cc(N3CCC[C@H](c4ccncc4)C3)nc(-c3ccc(Cl)cc3F)c2c(=O)n1C [Example 233, (R)-5-(4-chloro-2-fluorophenyl)-2,3-dimethyl-7-(3-(pyridin-4-yl)piperidin-1-yl)pyrido[4,3-d]pyrimidin-4(3H)-one], the Emax is reported as “++++ (Emax>300)” and the EC50 is reported as 50 to 500 nM.

Cc1nc2cc(N3CCC[C@H](c4cnn(C)c4)C3)nc(-c3ccc(Cl)cc3F)c2c(=O)n1C [Example 214, (R)-5-(4-chloro-2-fluorophenyl)-2,3-dimethyl-7-(3-(1-methyl-1H-pyrazol-4-yl)piperidin-1-yl)pyrido[4,3-d]pyrimidin-4(3H)-one] was tested, and the Emax was “++++ (Emax>300)” and the EC50 was 50 to 500 nM.

With Cc1nc2cc(N3CCO[C@H](c4cnn(C)c4)C3)nc(-c3ccc(Cl)cc3F)c2c(=O)n1C [Example 189, (R)-5-(4-chloro-2-fluorophenyl)-2,3-dimethyl-7-(2-(1-methyl-1H-pyrazol-4-yl)morpholino)pyrido[4,3-d]pyrimidin-4(3H)-one] the Emax was “++++ (Emax>300)” and the EC50 was 50 to 500 nM.

In the case of Cc1nc2cc(N3C[C@@H](C)O[C@H](c4ccsc4)C3)nc(-c3ccc(Cl)cc3F)c2c(=O)n1C (single isomer, unassigned) [Example 74], the Emax is reported as “+ (Emax>45 and ≤100)” and the EC50 is reported as 500 to 3000 nM.

In the case of Cc1nc2cc(N3CC[C@H](c4cccnc4)C3)nc(-c3ccc(Cl)cc3F)c2c(=O)n1C [Example 261, (R)-5-(4-chloro-2-fluorophenyl)-2,3-dimethyl-7-(3-(pyridin-3-yl)pyrrolidin-1-yl)pyrido[4,3-d]pyrimidin-4(3H)-one], the Emax is reported as “++++ (Emax>300)” and the EC50 is reported as 3000 to 100000 nM.

Cc1nc2cc(N3CCO[C@@H](c4cnn(C5CN(C)C5)c4)C3)nc(-c3ccc(Cl)cc3F)c2c(=O)n1C [Example 138, 5-(4-chloro-2-fluorophenyl)-2,3-dimethyl-7-((2S)-2-(1-(1-methyl-3-azetidinyl)-1H-pyrazol-4-yl)-4-morpholinyl)pyrido[4,3-d]pyrimidin-4(3H)-one] was tested, and the Emax was “+++ (Emax>200 and ≤300)” and the EC50 was 50 to 500 nM.

In the case of Cc1nc2cc(N3CCO[C@@H](c4cnn(CC(F)(F)F)c4)C3)nc(-c3ccc(Cl)cc3F)c2c(=O)n1C [Example 126, 5-(4-chloro-2-fluorophenyl)-2,3-dimethyl-7-((2S)-2-(1-(2,2,2-trifluoroethyl)-1H-pyrazol-4-yl)-4-morpholinyl)pyrido[4,3-d]pyrimidin-4(3H)-one], the Emax is reported as “+++ (Emax>200 and ≤300)” and the EC50 is reported as under 50 nM.

Cc1nnc([C@@H]2CN(c3cc4nc(C)n(C)c(=O)c4c(-c4ccc(Cl)cc4F)n3)CCO2)o1 (single isomer, unassigned) [Example 58] was tested, and the Emax was “+++ (Emax>200 and ≤300)” and the EC50 was 500 to 3000 nM.

Cc1nc2cc(N3CCc4cnccc4C3)nc(-c3ccc(Cl)cc3F)c2c(=O)n1C [Example 101, 5-(4-chloro-2-fluorophenyl)-7-(3,4-dihydro-2,6-naphthyridin-2(1H)-yl)-2,3-dimethylpyrido[4,3-d]pyrimidin-4(3H)-one] was tested, and the Emax was “+++ (Emax>200 and ≤300)” and the EC50 was 500 to 3000 nM.

With CCn1c(C(F)(F)F)nc2cc(N3CCO[C@@H](c4cnn(C)c4)C3)nc(-c3ccc(Cl)cc3F)c2c1=O [Example 144, 5-(4-chloro-2-fluorophenyl)-3-ethyl-7-((2S)-2-(1-methyl-1H-pyrazol-4-yl)-4-morpholinyl)-2-(trifluoromethyl)pyrido[4,3-d]pyrimidin-4(3H)-one] the Emax was “++++ (Emax>300)” and the EC50 was 50 to 500 nM.

In the case of Cc1nc2cc(N3CCO[C@H]([C@H]4CCO4)C3)nc(-c3ccc(Cl)cc3F)c2c(=O)n1C (single isomer, unassigned) [Example 41], the Emax is reported as “+++ (Emax>200 and ≤300)” and the EC50 is reported as 500 to 3000 nM.

For Cc1nc2cc(N3C[C@@H](C)O[C@H](c4cnn(C)c4)C3)nc(-c3ccc(Cl)cc3F)c2c(=O)n1C (single isomer, unassigned) [Example 27], the Emax was “++++ (Emax>300)” and the EC50 was 50 to 500 nM.

In the case of Cc1nc2cc(N3CC[C@H](C(F)(F)F)C3)nc(-c3ccc(Cl)cc3F)c2c(=O)n1C [Example 257, (S)-5-(4-chloro-2-fluorophenyl)-2,3-dimethyl-7-(3-(trifluoromethyl)pyrrolidin-1-yl)pyrido[4,3-d]pyrimidin-4(3H)-one], the Emax is reported as “++ (Emax>100 and ≤200)” and the EC50 is reported as 500 to 3000 nM.

In the case of Cc1nc2cc(N3CCO[C@H](c4cccc(OC(F)(F)F)c4)C3)nc(-c3ccc(Cl)cc3F)c2c(=O)n1C (single isomer, unassigned) [Example 97], the Emax is reported as “++++ (Emax>300)” and the EC50 is reported as 500 to 3000 nM.

For Cc1nc2cc(N3CCCC(c4cnco4)C3)nc(-c3ccc(Cl)cc3F)c2c(=O)n1C (centres unmarked) [Example 105, 5-(4-chloro-2-fluorophenyl)-2,3-dimethyl-7-(3-(1,3-oxazol-5-yl)-1-piperidinyl)pyrido[4,3-d]pyrimidin-4(3H)-one], the Emax was “++++ (Emax>300)” and the EC50 was 50 to 500 nM.

For CCCn1c(C)nc2cc(N3CCO[C@H](c4cnn(C)c4)C3)nc(-c3ncc(Cl)cc3F)c2c1=O [Example 215, (R)-5-(5-chloro-3-fluoropyridin-2-yl)-2-methyl-7-(2-(1-methyl-1H-pyrazol-4-yl)morpholino)-3-propylpyrido[4,3-d]pyrimidin-4(3H)-one], the Emax was “++++ (Emax>300)” and the EC50 was 3000 to 100000 nM.

With Cc1nc2cc(N3CCO[C@@H](c4ccsc4)C3)nc(-c3ccc(Cl)cc3F)c2c(=O)n1C (single isomer, unassigned) [Example 55] the Emax was “++++ (Emax>300)” and the EC50 was 500 to 3000 nM.

Cc1nc2cc(N3CCO[C@H](c4ccncc4)C3)nc(-c3ccc(Cl)cc3F)c2c(=O)n1C [Example 226, (R)-5-(4-chloro-2-fluorophenyl)-2,3-dimethyl-7-(2-(pyridin-4-yl)morpholino)pyrido[4,3-d]pyrimidin-4(3H)-one] was tested, and the Emax was “++++ (Emax>300)” and the EC50 was 50 to 500 nM.

In the case of Cc1nc2cc(N3CC[C@H](C4CC4)C3)nc(-c3ccc(Cl)cc3F)c2c(=O)n1C [Example 207, (R)-5-(4-chloro-2-fluorophenyl)-7-(3-cyclopropylpyrrolidin-1-yl)-2,3-dimethylpyrido[4,3-d]pyrimidin-4(3H)-one], the Emax is reported as “++ (Emax>100 and ≤200)” and the EC50 is reported as 3000 to 100000 nM.

CCCn1c(C)nc2cc(N3CCO[C@H](c4ccccc4)C3)nc(-c3ccc(Cl)cc3F)c2c1=O [Example 190, (R)-5-(4-chloro-2-fluorophenyl)-2-methyl-7-(2-phenylmorpholino)-3-propylpyrido[4,3-d]pyrimidin-4(3H)-one] was tested, and the Emax was “+++ (Emax>200 and ≤300)” and the EC50 was 500 to 3000 nM.

Cc1nc2cc(N3CCO[C@H]([C@@H]4CCOC4)C3)nc(-c3ccc(Cl)cc3F)c2c(=O)n1C (single isomer, unassigned) [Example 45] was tested, and the EC50 was 500 to 3000 nM.

Cc1ccc([C@@H]2CN(c3cc4nc(C)n(C)c(=O)c4c(-c4ccc(Cl)cc4F)n3)CCO2)cn1 (single isomer, unassigned) [Example 140] was tested, and the Emax was “++++ (Emax>300)” and the EC50 was 50 to 500 nM.

Cn1cc([C@H]2CN(c3cc4ncn(C)c(=O)c4c(-c4ccc(Cl)cc4F)n3)CCO2)cn1 [Example 158, 5-(4-chloro-2-fluorophenyl)-3-methyl-7-((2S)-2-(1-methyl-1H-pyrazol-4-yl)-4-morpholinyl)pyrido[4,3-d]pyrimidin-4(3H)-one] was tested, and the Emax was “+++ (Emax>200 and ≤300)” and the EC50 was 500 to 3000 nM.

Cn1cc([C@H]2CN(c3cc4nc(C(F)(F)F)n(C)c(=O)c4c(-c4ccc(Cl)cc4F)n3)CCO2)cn1 [Example 143, 5-(4-chloro-2-fluorophenyl)-3-methyl-7-((2S)-2-(1-methyl-1H-pyrazol-4-yl)-4-morpholinyl)-2-(trifluoromethyl)pyrido[4,3-d]pyrimidin-4(3H)-one] was tested, and the Emax was “++++ (Emax>300)” and the EC50 was 50 to 500 nM.

Cc1nc2cc(N3CCC(F)(F)[C@H](c4cnn(C)c4)C3)nc(-c3ccc(Cl)cc3F)c2c(=O)n1C (single isomer, unassigned) [Example 117] was tested, and the Emax was “+++ (Emax>200 and ≤300)” and the EC50 was under 50 nM.

COc1ncnc2c1CN(c1cc3nc(C)n(C)c(=O)c3c(-c3ccc(Cl)cc3F)n1)CC2 [Example 116, 5′-(4-chloro-2-fluorophenyl)-4-methoxy-2′,3′-dimethyl-7,8-dihydro-5H-[6,7′-bipyrido[4,3-d]pyrimidin]-4′(3′H)-one] was tested, and the Emax was “++ (Emax>100 and ≤200)” and the EC50 was 50 to 500 nM.

With “5-(4-chloro-2-fluorophenyl)-2,3-dimethyl-7-((2R,4R)-2-(1-methyl-1H-pyrazol-4-yl)tetrahydro-2H-pyran-4-yl)pyrido[4,3-d]pyrimidin-4(3H)-one and 5-(4-chloro-2-fluorophenyl)-2,3-dimethyl-7-((2S,4S)-2-(1-methyl-1H-pyrazol-4-yl)tetrahydro-2H-pyran-4-yl)pyrido[4,3-d]pyrimidin-4(3H)-one [Example 161]” the Emax was “+++ (Emax>200 and ≤300)” and the EC50 was 500 to 3000 nM.

For Cc1cc([C@@H]2CN(c3cc4nc(C)n(C)c(=O)c4c(-c4ccc(Cl)cc4F)n3)CCO2)ccn1 [Example 62, 5-(4-chloro-2-fluorophenyl)-2,3-dimethyl-7-((2R)-2-(2-methyl-4-pyridinyl)-4-morpholinyl)pyrido[4,3-d]pyrimidin-4(3H)-one], the Emax was “+++ (Emax>200 and ≤300)” and the EC50 was 50 to 500 nM.
